The values that follow come from patent publication US20250230138A1, “COMPOUNDS HAVING A T-STRUCTURE FORMED BY AT LEAST FOUR CYCLES FOR USE IN THE TREATMENT OF CANCER AND OTHER INDICATIONS” (TheRas, Inc., priority 2022, published 2025).

Each structure is given as a SMILES string. Where two headings read alike, the source gives them in different places.

The target in experiment [1] is Cys242 in human PIK3CA (157-299) (Homo sapiens (Human), UniProt P42336). Put plainly: Covalent modification assay using MALDI-TOF MS. The experiment is classed as biochemical. To be noted: 4 h reaction time point. The method, boiled down: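 PIK3CA (157-299), 3.33 or 1 μM in 20 mM HEPES, 150 mM NaCl, 2 mM MgCl2, pH 7.3, was incubated with compound at room temperature in the dark for 15 min, 30 min, 2 h or 4 h. Linear MALDI-TOF read-out; % modification = adduct peak height over summed heights of all protein species.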

For another experiment, the system named is pAKT in BT474 cells. Briefly: Cell-based pAKT HTRF assay in BT474 cells. The following applies: BT474 cells, 4 hr incubation, read-out: pAKT inhibition IC50 in BT474 cells. The method, boiled down:
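Treatment lasts 4 hr in DMEM/10% FBS at 0.25% DMSO over nine 3-fold dilutions from 3 μM. The lysate is then probed by HTRF.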
Background: TR-FRET usually uses a lanthanide donor and a delayed reading to cut background.

The mark [2] stands for this setting: 3.33 μM protein target, 1:7.5 protein to compound ratio (compounds 1-852).
The mark [3] stands for this setting: 1 μM protein target, 1:5 protein to compound ratio (compounds 853-1279).

Sequence of Cys242 in human PIK3CA (157-299) (P42336 157-299): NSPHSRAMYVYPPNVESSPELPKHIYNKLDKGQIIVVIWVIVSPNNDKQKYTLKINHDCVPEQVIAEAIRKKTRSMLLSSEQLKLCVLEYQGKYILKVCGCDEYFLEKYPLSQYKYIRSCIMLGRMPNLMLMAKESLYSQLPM

For orientation: IC50 means the concentration that inhibits the measured activity by half. `C=CC(=O)N1CCC(n2cc(-c3nc(-c4ccc5c(c4)CCNC5)c4ccsc4c3-c3ccc(F)cc3OCCOC)ccc2=O)CC1` [Compound 181]: in experiment [1] (setting [2]), the “% of modification” value was “A (percent of modification of PIK3CA protein ≥75%)”. Also, in the experiment on pAKT in BT474 cells (Compounds 10-999), the IC50 lay within 100 to 1000 nM.
With `C=C(F)C(=O)N1CCn2nc(-c3nc(-c4ccc5c(c4)CNC5=O)c4ccsc4c3-c3c(F)cc(F)cc3OC(C)C)cc2C1` [Compound 341], the “% of modification” value in experiment [1] (setting [2]) is on record as “B (50%<percent of modification <75%)”. Further, the IC50 in the experiment on pAKT in BT474 cells (Compounds 10-999) was less than 100 nM.
Turning to `C=CC(=O)N1Cc2cc(-c3nc(-c4ccc5c(c4)NC(=O)C5)c4ccsc4c3-c3c(F)cc(F)cc3OCCOC)nn2C[C@H]1C` [Compound 779], in experiment [1] (setting [2]), the “% of modification” value is “A (percent of modification of PIK3CA protein ≥75%)”. The half-maximal inhibitory concentration (IC50) with pAKT in BT474 cells (Compounds 10-999) was less than 100 nM.
With `C=CC(=O)N1CCn2nc(-c3nc(N4CC(CC(=O)N(C)C)C4)c4ccsc4c3-c3c(F)cc(F)cc3OCCOC)cc2C1C` (stereo not shown) [Compound 1039], the “% of modification” value in experiment [1] (setting [3]) is recorded as “A (percent of modification of PIK3CA protein ≥75%)”. The 50% inhibitory concentration (IC50) in the experiment with pAKT in BT474 cells (Compounds 1000-1279) is greater than 1000 nM.
On to `C=CC(=O)N1CCc2nc(-c3nc(-c4ccc5c(c4)CNC5=O)c4ccsc4c3-c3c(F)cc(F)cc3OCCO)sc2C1` [Compound 1052], for which the “% of modification” value in experiment [1] (setting [3]) is listed as “A (percent of modification of PIK3CA protein ≥75%)”. For the same compound, the 50% inhibitory concentration (IC50) with pAKT in BT474 cells (Compounds 1000-1279) is less than 100 nM.
Turning to `C=CC(=O)N1Cc2cc(-c3nc(-c4ccc5c(c4)CCN(C)C5)c4ccsc4c3-c3c(F)cc(F)cc3OCCO)nn2[C@@H](C)C1` [Compound 483], the “% of modification” value in experiment [1] (setting [2]) is “A (percent of modification of PIK3CA protein ≥75%)”. Also, the concentration for half-maximal inhibition (IC50) in the experiment on pAKT in BT474 cells (Compounds 10-999) is less than 100 nM.
The like results for `C=CC(=O)N1Cc2cc(-c3nc(-c4cnnc(C)c4)c4ccsc4c3-c3c(F)cc(F)cc3OCCO)nn2C(C)C1` (stereo not shown) [Compound 787] were, in that order, “D (percent of modification <25%)” and 100 to 1000 nM.
With `C=CC(=O)N1CCn2nc(-c3nc(-c4cnn(C)c4)c4ccsc4c3-c3c(F)cc(F)cc3OCCO)cc2C1C` (stereo not shown) [Compound 532], in experiment [1] (setting [2]), the “% of modification” value was “A (percent of modification of PIK3CA protein ≥75%)”. In addition, in the experiment with pAKT in BT474 cells (Compounds 10-999), the IC50 is less than 100 nM.
As to `C=CC(=O)N1CCc2nc(-c3nc(-c4ccc5c(c4)CS(=O)(=O)C5)c4ccsc4c3-c3ccc(F)cc3OCCOC)sc2C1` [Compound 116], the “% of modification” value in experiment [1] (setting [2]) was “A (percent of modification of PIK3CA protein ≥75%)”. In addition, the 50% inhibitory concentration (IC50) with pAKT in BT474 cells (Compounds 10-999) was less than 100 nM.
As for `C=CC(=O)N1CCn2nc(-c3nc(-c4ccc(C(=O)N(C)CCN(C)C)cc4)c4ccsc4c3-c3c(F)cc(F)cc3OCCOC)cc2C1C` (stereo not shown) [Compound 1206], the “% of modification” value in experiment [1] (setting [3]) is recorded as “A (percent of modification of PIK3CA protein ≥75%)”. Further, in the experiment with pAKT in BT474 cells (Compounds 1000-1279), the IC50 is less than 100 nM.
On to `C=C(F)C(=O)N1CCn2nc(-c3nc(-c4ccc5c(c4)CCN(C)C5)c4ccsc4c3-c3ccc(F)cc3OC(C)C)cc2C1` [Compound 293], for which the “% of modification” value in experiment [1] (setting [2]) was “A (percent of modification of PIK3CA protein ≥75%)”. Also, the IC50 with pAKT in BT474 cells (Compounds 10-999) was less than 100 nM.
As to `C=CC(=O)N1CCn2nc(-c3nc(-c4ccc5c(c4)CCN(C)C5)c4ccsc4c3-c3c(F)cc(F)cc3OC(C)C)cc2[C@@H]1C` [Compound 502], in experiment [1] (setting [2]), the “% of modification” value is reported as “A (percent of modification of PIK3CA protein ≥75%)”. Besides, in the experiment with pAKT in BT474 cells (Compounds 10-999), the IC50 was less than 100 nM.
In the case of `C=CC(=O)N1CCn2nc(-c3nc(-c4cnc5cn(C)nc5c4)c4ccsc4c3-c3c(F)cc(F)cc3OCCO)cc2C1C` (stereo not shown) [Compound 913], the “% of modification” value in experiment [1] (setting [3]) is “A (percent of modification of PIK3CA protein ≥75%)”. Further, the concentration for half-maximal inhibition (IC50) with pAKT in BT474 cells (Compounds 10-999) was less than 100 nM.
On to `C=CC(=O)N1CCc2ccc(-c3nc(-c4cnc5c(c4)CNC(=O)C5)c4ccsc4c3-c3c(F)cc(F)cc3OCCOC)cc2C1` [Compound 482], for which, in experiment [1] (setting [2]), the “% of modification” value is on record as “A (percent of modification of PIK3CA protein ≥75%)”. The half-inhibitory concentration (IC50) with pAKT in BT474 cells (Compounds 10-999) is less than 100 nM.
